Source: ChEMBL document CHEMBL6103589, “Synthesis and evaluation of novel ebselen derivatives as urease inhibitors for combating Helicobacter pylori infections” (Eur J Med Chem, 2025)
In brackets after ≈: the same amount, converted by molar mass. Activity calls are given as the source filed them. No cut-off for these calls is given here.

These compounds were tested against Urease subunit alpha/Urease subunit beta (Helicobacter pylori (strain ATCC 700392 / 26695) (Campylobacterpylori), UniProt P69996) (assay: Inhibition of Helicobacter pylori ATCC 43504 urease preincubated for 75 mins followed by urea addition and measured after 30 mins by ELISA). Conditions: not given.
Assay type: protein-complex assay

Chain of Urease subunit alpha/Urease subunit beta (P69996 whole entry): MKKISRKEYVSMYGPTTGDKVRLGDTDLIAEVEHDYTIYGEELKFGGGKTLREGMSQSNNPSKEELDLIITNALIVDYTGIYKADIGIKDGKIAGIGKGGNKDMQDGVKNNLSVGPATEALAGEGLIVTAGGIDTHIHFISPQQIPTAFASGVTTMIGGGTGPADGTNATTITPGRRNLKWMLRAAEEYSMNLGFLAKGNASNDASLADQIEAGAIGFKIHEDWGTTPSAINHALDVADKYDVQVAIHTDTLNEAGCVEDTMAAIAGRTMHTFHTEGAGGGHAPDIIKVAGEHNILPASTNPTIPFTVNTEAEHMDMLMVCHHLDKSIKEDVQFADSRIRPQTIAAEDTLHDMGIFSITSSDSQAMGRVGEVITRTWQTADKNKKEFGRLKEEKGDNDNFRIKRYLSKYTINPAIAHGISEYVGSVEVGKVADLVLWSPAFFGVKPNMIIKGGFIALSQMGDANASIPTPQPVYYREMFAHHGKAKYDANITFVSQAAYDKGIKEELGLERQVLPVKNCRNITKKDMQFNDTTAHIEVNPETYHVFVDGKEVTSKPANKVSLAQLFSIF
Chain of Urease subunit alpha/Urease subunit beta (P14916 whole entry, further chain): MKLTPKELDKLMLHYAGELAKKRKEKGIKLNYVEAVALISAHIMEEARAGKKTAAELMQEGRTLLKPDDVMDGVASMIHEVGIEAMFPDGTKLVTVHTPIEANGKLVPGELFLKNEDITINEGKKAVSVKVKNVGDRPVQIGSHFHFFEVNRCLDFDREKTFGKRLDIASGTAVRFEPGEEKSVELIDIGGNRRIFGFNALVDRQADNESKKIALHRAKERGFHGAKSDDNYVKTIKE

Going from `O=C(c1cccc([N+](=O)[O-])c1)n1[se]c2ccccc2c1=O` to `O=C(c1ccc([N+](=O)[O-])cc1)n1[se]c2ccccc2c1=O`, the IC50 rises from 1230 nM to 1960 nM (1.6-fold). The first is the more potent here.

`O=C(c1cc(F)c(F)cc1F)n1[se]c2ccccc2c1=O` and `O=C(c1ccc(F)c(F)c1F)n1[se]c2ccccc2c1=O` are within 1.5-fold of each other in IC50: 3290 nM for the first, 3480 nM for the second.

First: COc1cccc(C(=O)n2[se]c3ccccc3c2=O)c1
Second: Cc1cccc(C(=O)n2[se]c3ccccc3c2=O)c1
The IC50 of the first is 2.7-fold lower: 1980 nM for the first, 5410 nM for the second. The first is the more potent here.

First: O=C(c1cccc(F)c1)n1[se]c2ccccc2c1=O
Second: O=C(c1cccc(Br)c1)n1[se]c2ccccc2c1=O
The IC50 of the first is 1.9-fold lower: 440 nM for the first, 820 nM for the second.

`COc1ccc(-n2[se]c3ccccc3c2=O)cc1` and `COc1cccc(-n2[se]c3ccccc3c2=O)c1` are within 1.5-fold of each other in IC50: 7580 nM for the first, 6660 nM for the second.

`O=c1c2ccccc2[se]n1-c1cc(F)ccc1Cl` and `O=c1c2ccccc2[se]n1-c1ccc(F)cc1Cl` are within 1.5-fold of each other in IC50: 1340 nM for the first, 1560 nM for the second.

Compared with `COc1ccc(C(=O)n2[se]c3ccccc3c2=O)cc1`, `Cc1ccc(C(=O)n2[se]c3ccccc3c2=O)cc1` is 2.2-fold higher in IC50: 1730 nM for the first, 3750 nM for the second. The first is the more potent here.

Compared with `O=C(c1c(F)cccc1F)n1[se]c2ccccc2c1=O`, `O=C(c1cccc(F)c1F)n1[se]c2ccccc2c1=O` is 1.9-fold lower in IC50: 3620 nM for the first, 1910 nM for the second.

`O=c1c2ccccc2[se]n1-c1cccc(Cl)c1` and `Cc1cccc(-n2[se]c3ccccc3c2=O)c1` are within 1.5-fold of each other in IC50: 2760 nM for the first, 3190 nM for the second.

`O=c1c2ccccc2[se]n1-c1cccc(OC(F)(F)F)c1` and `O=c1c2ccccc2[se]n1-c1ccc(OC(F)(F)F)cc1` are within 1.5-fold of each other in IC50: 7230 nM for the first, 10600 nM for the second.

`O=c1c2ccccc2[se]n1-c1ccccc1Cl` and `O=c1c2ccccc2[se]n1-c1ccccc1` [EBSELEN] are within 1.5-fold of each other in IC50: 1830 nM for the first, 1510 nM for the second.

`O=C(c1ccc(F)cc1F)n1[se]c2ccccc2c1=O` and `O=C(c1cc(F)ccc1F)n1[se]c2ccccc2c1=O` are within 1.5-fold of each other in IC50: 1990 nM for the first, 2980 nM for the second.

`O=c1c2ccccc2[se]n1-c1ccc(F)cc1` and `O=c1c2ccccc2[se]n1-c1ccc(Cl)cc1` are within 1.5-fold of each other in IC50: 2420 nM for the first, 2520 nM for the second.

Going from `N#Cc1cccc(-n2[se]c3ccccc3c2=O)c1` to `COC(=O)c1cccc(-n2[se]c3ccccc3c2=O)c1`, the IC50 rises from 1320 nM to 4660 nM (3.5-fold). The first is the more potent here.

Compared with `CC(C)(C)c1ccc(-n2[se]c3ccccc3c2=O)cc1`, `COC(=O)c1ccc(-n2[se]c3ccccc3c2=O)cc1` is 2.9-fold lower in IC50: 15100 nM for the first, 5230 nM for the second. The second is the more potent here.

Going from `O=C(Oc1n[se]c2ccccc12)c1cc(F)ccc1F` to `O=C(Oc1n[se]c2ccccc12)c1ccc(F)cc1F`, the IC50 falls from 860 nM to 360 nM (2.4-fold).

Going from `O=C(c1ccc(Cl)cc1)n1[se]c2ccccc2c1=O` to `O=C(c1ccc(F)cc1)n1[se]c2ccccc2c1=O`, the IC50 falls from 1930 nM to 890 nM (2.2-fold). The second is the more potent here.

First: O=c1c2ccccc2[se]n1-c1c(F)cccc1Cl
Second: O=c1c2ccccc2[se]n1-c1ccc(F)c(F)c1
The IC50 of the first is 2.3-fold lower: 1530 nM for the first, 3550 nM for the second.

`O=C(Oc1n[se]c2ccccc12)c1ccc(F)cc1` and `O=C(Oc1n[se]c2ccccc12)c1ccccc1F` are within 1.5-fold of each other in IC50: 340 nM for the first, 310 nM for the second.

Going from `O=C(Oc1n[se]c2ccccc12)c1c(F)cccc1F` to `O=C(Oc1n[se]c2ccccc12)c1cccc(F)c1F`, the IC50 falls from 1120 nM to 440 nM (2.5-fold).

Compared with `O=C(c1ccc(F)c(F)c1)n1[se]c2ccccc2c1=O`, `O=C(c1cccc(Cl)c1)n1[se]c2ccccc2c1=O` is 2.6-fold lower in IC50: 3360 nM for the first, 1310 nM for the second. The second is the more potent here.

Going from `Cc1ccccc1C(=O)n1[se]c2ccccc2c1=O` to `O=C(c1ccccc1F)n1[se]c2ccccc2c1=O`, the IC50 falls from 3170 nM to 870 nM (3.6-fold). The second is the more potent here.

`COc1ccccc1C(=O)n1[se]c2ccccc2c1=O` and `O=C(c1ccccc1Br)n1[se]c2ccccc2c1=O` are within 1.5-fold of each other in IC50: 1100 nM for the first, 1500 nM for the second.

Compared with `O=C(c1cccc(C(F)(F)F)c1)n1[se]c2ccccc2c1=O`, `O=C(c1ccc(C(F)(F)F)cc1)n1[se]c2ccccc2c1=O` is 2.4-fold higher in IC50: 1460 nM for the first, 3540 nM for the second. The first is the more potent here.

First: O=c1c2ccccc2[se]n1-c1ccc(C(F)(F)F)cc1F
Second: Cc1ccc(-n2[se]c3ccccc3c2=O)cc1C(F)(F)F
The IC50 of the first is 2.3-fold lower: 5210 nM for the first, 12100 nM for the second. The first is the more potent here.

Going from `O=C(c1ccc(Br)cc1)n1[se]c2ccccc2c1=O` to `O=C(c1ccccc1Cl)n1[se]c2ccccc2c1=O`, the IC50 rises from 940 nM to 1460 nM (1.6-fold). The first is the more potent here.

First: O=C(Oc1n[se]c2ccccc12)c1ccc(F)c(F)c1F
Second: O=C(c1ccccc1C(F)(F)F)n1[se]c2ccccc2c1=O
The IC50 of the first is 3.6-fold lower: 1100 nM for the first, 3990 nM for the second.

Work on `O=C(c1ccccc1[N+](=O)[O-])n1[se]c2ccccc2c1=O` yielded an IC50 of 2650 nM.

Each compound was assayed on Helicobacter pylori (assay: Antibacterial activity against Helicobacter pylori ATCC 43504 incubated for 24 hrs by broth dilution method). Conditions: dose 1-64 […].
Assay type: functional

For `O=c1c2ccccc2[se]n1-c1ccccc1` [EBSELEN], the Activity was “Dose-dependent-effect”.

`O=c1c2ccccc2[se]n1-c1ccccc1` [EBSELEN] showed an MIC of 32 µg/mL (≈ 117 µM).

Each compound was assayed on Helicobacter pylori (assay: Antibacterial activity against Helicobacter pylori ATCC 43504 assessed as inhibition of bacterial colonies at 32 ug/mL incubated for 24 hrs by broth dilution method). Conditions: dose 32.0 µg/ml.
Assay type: functional, organism-based

For `O=c1c2ccccc2[se]n1-c1ccccc1` [EBSELEN], the Activity was “Active”.
